The values that follow come from patent US4377687A, “Analogs of 1-(2-chloroethyl)-1-nitroso-3-(cycloheyl)-urea substituted by heterocyclic rings or alkyl radicals” (Stiftung Deutsches Krebsforschungszentrum, priority 1978, dated 1983).

Several values for one entry are separate records, joined by “and”; a condition that tells them apart may be missing. Equal entries are not always repeated. Where two headings read alike, the source gives them in different places.

Data set [1] concerns Yoshida sarcoma. It counts as in vivo, rat (male Sprague-Dawley rats). Conditions: for p for improvement of survival time / life expectancy: compared with controls, dimethylmorpholine-CNU 45 mg/kg; for p for improvement of survival time / life expectancy / increase in tumor-free animals (cures) above controls: CP (exp. 1-3); for effect on survival time / life expectancy (in words): experiments 1-4, MeCCNU 45, morpholino-CNU 28 (exp. 3 and 5), dimethylmorpholine-CNU 45, piperidino-CNU 15, picolyl-3-CNU 25, picolyl-3-CNU.HCl 25 mg/kg; for chemotherapeutic activity against Yoshida sarcoma in the colon wall (in words): i.p.; for tumor-free animals at the end of the experiment (in words) / increase in tumor-free animals (cures) above controls: 120 days; for increase in tumor-free animals (cures) above controls: BCNU, MeCCNU 45, dimethylmorpholine-CNU 45, piperidino-CNU 15, picolyl-3-CNU.HCl 25 mg/kg. As to the method:
The chemotherapeutic activity of nitrosoureas was compared in antitumor tests using Yoshida sarcoma ascited cells implanted into the wall of the descending colon in Sprague-Dawley rats.
(§1) Male Sprague-Dawley rats were used in the experiments. Yoshida sarcome in ascites form was maintained in the same strain of rats by serial intraperitoneal injection of 0,5 ml of ascites fluid.
(§2) 3×10^6 cells were injected into the colon wall in a manner known per se. The chemotherapeutic treatment was carried out on the eighth day after implantation of the tumor cells.
(§3) Water-insoluble compounds were dissolved in Cremophor EL/ethanol/physiological saline (20:20:60: vol.%). Water-soluble substances were dissolved in physiological saline. Cremophor EL is a surfactant on the basis of polyethoxylated castor oil. All test compounds were administered introperitoneally. The nitrosoureas were applied at approximately equitoxic doses corresponding to about 80% of the acute LD50 values observed in healthy rats of the same strain over a 28-day observation period.
(§4) Each experiment involved an untreated control group and a varying number of treated groups. Individual survival times were counted as days after tumor inoculation. At the time of death a record of whether an animal was tumor-free or not was made. All animals alive 120 days after tumor inoculation were killed. Animals that according to macroscopic examination had no tumor at the end of the experiment were considered as cured. Since in a number of control rats also no tumors occurred after 120 days the differences in cures between controls and treated animals rather than absolute numbers are reported. Differences in survival were evaluated statistically by individual comparisons between treated rats and controls using a nonparametric log-rank test (Kalbfleisch and Prentice, The statistical analysis of failure time data, Wiley, New York, 1979). Numerical evaluation was performed using a computerized system.

Data set [2] is described as follows: Mean animal weight / weight gain after tumor transplantation. As to conditions: CP 70 (exp. 1-3), BCNU 25, MeCCNU 45 (exp. 1), picolyl-3-CNU 25, its HCl 25 (exp. 2), morpholino-CNU 28, piperidino-CNU 15 (exp. 3), dimethylmorpholino-CNU 45 mg/kg (exp. 4); for Mean animal weight on day 50: day 50 after tumor transplantation; for Mean animal weight on day 100: day 100 after tumor transplantation. It counts as in vivo, rat (Sprague-Dawley rats). As to the method: as §1, §2, §3
In all treated animals and at all doses tested the mean weight gain was lower than in the controls. Table 3 gives the mean animal weights measured 50 and 100 days after tumor transplantation in experiments 1 to 5.

In data set [3] the test system is Yoshida sarcoma. As to conditions: previous experiments; i.p.; cited from earlier work.
Data set [4] concerns Yoshida sarcoma. It counts as in vivo, rat (male Sprague-Dawley rats). Conditions: i.p.
A short description of data set [5]: Toxicity in treated tumor-bearing rats (Yoshida sarcoma experiments). It counts as in vivo, rat (Sprague-Dawley rats). As to the method:
as §1, §2, §3, §4

The mark [6] stands for this setting: Experiment 1, CP 70, BCNU 25, MeCCNU 45 mg/kg.
Where [7] appears, read: Experiment 1, CP 70, BCNU 25, MeCCNU 45 mg/kg, initial animals CP 30, BCNU 30, MeCCNU 29.
Where [8] appears, read: Experiment 1, i.p. day 8, CP 70, BCNU 25, MeCCNU 45 mg/kg.
The mark [9] stands for this setting: Experiment 2, CP 70, picolyl-3-CNU 25, picolyl-3-CNU.HCl 25 mg/kg.
[10] abbreviates: Experiment 2, CP 70, picolyl-3-CNU 25, picolyl-3-CNU.HCl 25 mg/kg, 30 initial animals each.
[11] abbreviates: Experiment 3, CP 70, morpholino-CNU 28, piperidino-CNU 15 mg/kg.
The mark [12] stands for this setting: Experiment 3, CP 70, morpholino-CNU 28, piperidino-CNU 15 mg/kg, 30 initial animals each.
Where [13] appears, read: Experiment 5, CP 70, picolyl-3-CNU.HCl 25, morpholino-CNU 28, piperidino-CNU 15 mg/kg.
[14] abbreviates: Experiment 5, CP 70, picolyl-3-CNU.HCl 25, morpholino-CNU 28, piperidino-CNU 15 mg/kg, 15 initial animals (picolyl-3-CNU.HCl 14).
[15] abbreviates: Experiment 5, CP 70, piperidino-CNU 15 mg/kg.
Setting [16] is: Experiment 4, 45 mg/kg, 30 initial animals.

For the molecule `O=P1(N(CCCl)CCCl)NCCCO1` (stereo not drawn) [CP, 2-bis-(β-chloroethyl)-amino-oxo-2-oxa-2-λ^5-phospha-3-aza-cyclohexane], the “D1-120 = difference (%) between tf1-120 of treated and untreated animals” value was 38% in the data set on Yoshida sarcoma [1] (setting [6]), 58% with Yoshida sarcoma [1] (setting [9]), 48% in the data set on Yoshida sarcoma [1] (setting [11]) and 7% in the data set on Yoshida sarcoma [1] (setting [13]). Moreover, the “D120 = difference (%) between tf120 of treated and untreated animals” value (from here on “D120 = difference (%) between tf120”) was 25% in the data set on Yoshida sarcoma [1] (setting [6]), 35% in the data set with Yoshida sarcoma [1] (setting [9]), 38% in the data set with Yoshida sarcoma [1] (setting [11]) and 7% in the data set on Yoshida sarcoma [1] (setting [13]). Also, the “tf1-120 (%) (tf120 + animals dying of toxicity)” value (“tf1-120 (%)” below) in the data set on Yoshida sarcoma [1] (setting [6]) was 63%; in the data set on Yoshida sarcoma [1] (setting [9]), 80%; in the data set on Yoshida sarcoma [1] (setting [11]), 77%; in the data set on Yoshida sarcoma [1] (setting [15]), 7%. Further, the “tf120 (%) (animals surviving day 120 without tumor)” value in the data set with Yoshida sarcoma [1] (setting [6]) was 50%; in the data set with Yoshida sarcoma [1] (setting [9]), 57%; in the data set with Yoshida sarcoma [1] (setting [11]), 67%; in the data set with Yoshida sarcoma [1] (setting [15]), 7%. Also, the “tf1-120, No. (tf120 + animals dying of toxicity)” value in the data set on Yoshida sarcoma [1] (setting [7]) amounted to 21; in the data set on Yoshida sarcoma [1] (setting [10]), 24; in the data set on Yoshida sarcoma [1] (setting [12]) it was 23; in the data set with Yoshida sarcoma [1] (setting [14]) it was 1. Besides, the “tf120, No. (animals surviving day 120 without tumor)” value with Yoshida sarcoma [1] (setting [7]) is recorded as 15; in the data set on Yoshida sarcoma [1] (setting [10]) it was 17; in the data set with Yoshida sarcoma [1] (setting [12]) it was 20; in the data set with Yoshida sarcoma [1] (setting [14]), 1; in the data set with Yoshida sarcoma [1] (Experiment 5, CP 70, picolyl-3-CNU.HCl 25, morpholino-CNU 28, piperidino-CNU 15 mg/kg, 15 initial animals (picolyl-3-CNU.HCl 14), listed as cyclophosphamide), 1/15. Besides, the “% M (median survival time, untreated control = 100)” value in the data set on Yoshida sarcoma [1] (setting [8]) is > 260%; in the data set on Yoshida sarcoma [1] (setting [9]), > 545%; in the data set with Yoshida sarcoma [1] (setting [11]), > 686%; in the data set with Yoshida sarcoma [1] (setting [13]), 400%. Also, the “M = median survival time” value is listed as > 120 days in the data set with Yoshida sarcoma [1] (setting [8]); > 120 days in the data set with Yoshida sarcoma [1] (Experiment 2, i.p. day 8, CP 70, picolyl-3-CNU 25, picolyl-3-CNU.HCl 25 mg/kg); > 120 days in the data set on Yoshida sarcoma [1] (Experiment 3, i.p. day 8, CP 70, morpholino-CNU 28, piperidino-CNU 15 mg/kg); 40 days with Yoshida sarcoma [1] (Experiment 5, i.p. day 8, CP 70, picolyl-3-CNU.HCl 25, morpholino-CNU 28, piperidino-CNU 15 mg/kg). Besides, the “rate of tumor-free animals treated with cyclophosphamide in the other experiments” value in the data set with Yoshida sarcoma [1] (after 120 days, experiments other than experiment 5, listed as cyclophosphamide) is 50% and 57% and 67%. In addition, the “p for improvement of survival time / life expectancy” value in the data set on Yoshida sarcoma [1] is on record as < 0,05. In addition, the “effect on survival time / life expectancy (in words)” value in the data set on Yoshida sarcoma [1] is “improved significantly”. Also, the “chemotherapeutic activity against Yoshida sarcoma in the colon wall (in words)” value in the data set with Yoshida sarcoma [1] is “most active compound”. In addition, the “Mean animal weight on day 50” value in data set [2] was in the range of 300 to 330 g. Moreover, the “Mean animal weight on day 100” value in data set [2] was in the range of 300 to 370 g. Further, the “activity against Yoshida sarcoma, shown previously (in words)” value (from here on “activity … shown previously (in words)”) in the data set on Yoshida sarcoma [3] is given as “responds favorably”.
Regarding `CC1CN(NC(=O)N(CCCl)N=O)CC(C)O1` (centres unmarked) [Dimethylmorpholino-CNU], in the data set with Yoshida sarcoma [1], the “tumor-free animals at the end of the experiment (in words)” value (“tumor-free animals at the end” for short) is “remarkable increase in tumor-free animals”, the “increase in tumor-free animals (cures) above controls” value (“increase in tumor-free animals” below) stood at 20%, the “p for improvement of survival time / life expectancy” value is < 0,05 and the “chemotherapeutic activity against Yoshida sarcoma in the colon wall (in words)” value is reported as “active”. For the same molecule, in the data set on Yoshida sarcoma [1] (Experiment 4, 45 mg/kg), the “% M (median survival time, untreated control = 100)” value is 374%; the “D1-120 = difference (%) between tf1-120 of treated and untreated animals” value was 27%; the “D120 = difference (%) between tf120” value is 20%; the “tf1-120 (%)” value was determined as 47%. Besides, the “tf120 (%) (animals surviving day 120 without tumor)” value in the data set with Yoshida sarcoma [1] (Experiment 4, 45 mg/kg) was found to be 40%. Moreover, in the data set on Yoshida sarcoma [1] (setting [16]), the “tf1-120, No. (tf120 + animals dying of toxicity)” value is 14 and the “tf120, No. (animals surviving day 120 without tumor)” value is given as 12. Also, the “M = median survival time” value in the data set with Yoshida sarcoma [1] (Experiment 4, i.p. day 8, 45 mg/kg) is given as 71 days. Further, in the data set with Yoshida sarcoma [1] (listed as Dimethylmorpholine-CNU), the “effect on survival time / life expectancy (in words)” value is “significantly improved the life expectancy”. The “effect on survival time / life expectancy (in words)” value in the data set on Yoshida sarcoma [1] (listed as dimethylmorpholino-CNU) is listed as “significant increase in survival time”. Moreover, in data set [2], the “Mean animal weight on day 50” value came to 250 g and the “Mean animal weight on day 100” value worked out at 250 g. Also, in the data set with Yoshida sarcoma [4], the “concentration reached in the distal colon (in words)” value was “reached the distal colon at chemotherapeutically effective concentrations”. Moreover, the “water solubility (in words)” value in the data set “Water solubility” is listed as “water-soluble”.
Regarding `O=NN(CCCl)C(=O)NCCCl` [BCNU, 1,3-bis-(2-chloroethyl)-1-nitrosourea], in the data set on Yoshida sarcoma [1], the “tumor-free animals at the end” value is “increased the rate of tumor-free animals alive at the end of the experiment” and the “increase in tumor-free animals” value stood at 18%. Besides, in the data set on Yoshida sarcoma [1] (setting [6]), the “D1-120 = difference (%) between tf1-120 of treated and untreated animals” value is on record as 22%; the “D120 = difference (%) between tf120” value is on record as 18%; the “tf1-120 (%)” value was 47%; the “tf120 (%) (animals surviving day 120 without tumor)” value is recorded as 43%. In addition, in the data set on Yoshida sarcoma [1] (setting [7]), the “tf1-120, No. (tf120 + animals dying of toxicity)” value was found to be 14 and the “tf120, No. (animals surviving day 120 without tumor)” value worked out at 13. In the data set on Yoshida sarcoma [1] (setting [8]), the “% M (median survival time, untreated control = 100)” value came to 160% and the “M = median survival time” value turned out to be 74 days. Besides, in data set [2], the “Mean animal weight on day 50” value was found to be 270 g and the “Mean animal weight on day 100” value is 300 g. For the same molecule, the “activity … shown previously (in words)” value with Yoshida sarcoma [3] is given as “active”.
Take `CC1CCC(NC(=O)N(CCCl)N=O)CC1` (centres unmarked) [MeCCNU, 1-(2-chloroethyl)-3-(4-methylcyclohexyl)-1-nitrosourea]: in the data set on Yoshida sarcoma [1], the “tumor-free animals at the end” value is “increased the rate of tumor-free animals alive at the end of the experiment” and the “increase in tumor-free animals” value came to 8%. In the data set with Yoshida sarcoma [1] (setting [6]), the “D1-120 = difference (%) between tf1-120 of treated and untreated animals” value is 27%; the “D120 = difference (%) between tf120” value was found to be 8%; the “tf1-120 (%)” value turned out to be 52%; the “tf120 (%) (animals surviving day 120 without tumor)” value stood at 33%. Further, in the data set on Yoshida sarcoma [1] (setting [7]), the “tf1-120, No. (tf120 + animals dying of toxicity)” value was 15 and the “tf120, No. (animals surviving day 120 without tumor)” value is reported as 10. In the data set on Yoshida sarcoma [1] (setting [8]), the “% M (median survival time, untreated control = 100)” value came to 130% and the “M = median survival time” value was found to be 60 days. Further, in data set [2], the “Mean animal weight on day 50” value turned out to be 280 g and the “Mean animal weight on day 100” value was found to be 300 g. Also, in data set [5] (at the doses tested), the “toxicity (in words)” value was “obviously toxic”. Moreover, the mortality at 2880 h in data set [5] (rat, in vivo, ip, 45 mg/kg, read-out: animals died without a tumor before day 120) worked out at 19%. Also, in the data set on Yoshida sarcoma [3], the “activity … shown previously (in words)” value is given as “active”.
